Measured values: ChEMBL document CHEMBL1140518, “Unique spirocyclopiperazinium salt III: further investigation of monospirocyclopiperazinium (MSPZ) salts as potential analgesics” (Bioorg Med Chem Lett, 2007)

Target: Neuronal acetylcholine receptor; alpha4/beta2 (Homo sapiens, UniProt P17787+P43681)
Assay: Inhibition of alpha-4-beta-2 nAChR
Format: protein-complex assay

Neuronal acetylcholine receptor; alpha4/beta2, sequence (P17787 whole entry): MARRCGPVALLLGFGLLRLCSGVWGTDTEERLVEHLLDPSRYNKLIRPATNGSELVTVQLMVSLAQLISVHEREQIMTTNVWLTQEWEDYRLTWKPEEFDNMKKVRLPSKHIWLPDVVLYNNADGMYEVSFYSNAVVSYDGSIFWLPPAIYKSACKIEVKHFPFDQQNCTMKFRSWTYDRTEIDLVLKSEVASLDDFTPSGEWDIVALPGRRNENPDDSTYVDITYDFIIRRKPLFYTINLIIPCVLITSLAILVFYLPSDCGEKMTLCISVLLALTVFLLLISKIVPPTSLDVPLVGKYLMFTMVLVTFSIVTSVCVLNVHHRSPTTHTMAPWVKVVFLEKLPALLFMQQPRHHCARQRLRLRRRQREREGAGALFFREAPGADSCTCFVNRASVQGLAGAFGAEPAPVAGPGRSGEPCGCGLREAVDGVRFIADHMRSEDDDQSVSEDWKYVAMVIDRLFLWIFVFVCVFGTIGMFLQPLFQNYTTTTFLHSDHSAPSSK
Neuronal acetylcholine receptor; alpha4/beta2, sequence (P43681 whole entry): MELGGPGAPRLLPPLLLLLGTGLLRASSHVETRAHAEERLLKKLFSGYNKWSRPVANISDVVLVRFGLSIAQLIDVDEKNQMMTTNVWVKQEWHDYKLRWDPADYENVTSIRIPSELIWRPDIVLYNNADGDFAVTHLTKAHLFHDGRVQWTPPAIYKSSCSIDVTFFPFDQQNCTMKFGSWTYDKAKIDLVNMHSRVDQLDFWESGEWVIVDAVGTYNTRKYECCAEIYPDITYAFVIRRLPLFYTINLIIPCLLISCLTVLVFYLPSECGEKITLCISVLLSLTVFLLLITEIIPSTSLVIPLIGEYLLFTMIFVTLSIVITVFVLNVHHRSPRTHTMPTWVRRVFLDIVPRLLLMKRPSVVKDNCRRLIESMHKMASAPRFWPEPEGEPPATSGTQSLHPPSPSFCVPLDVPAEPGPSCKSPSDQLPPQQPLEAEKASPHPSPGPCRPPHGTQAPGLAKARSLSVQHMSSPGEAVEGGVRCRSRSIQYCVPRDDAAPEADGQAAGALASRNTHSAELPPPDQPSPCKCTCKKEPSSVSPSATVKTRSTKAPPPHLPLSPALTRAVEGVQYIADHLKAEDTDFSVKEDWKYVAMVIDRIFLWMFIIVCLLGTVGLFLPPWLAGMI

SMILES | IC50 [µM]
CC1C[N+]2(CCN(CCc3ccccc3)CC2)CC(C)O1.[Cl-] (stereo not given) | > 10

Tested on: Mus musculus
Assay: […] in ip dosed nociception mouse model
Format: functional

SMILES | LD50 [µmol/kg]
CC1C[N+]2(CCN(CCc3ccccc3)CC2)CC(C)O1.[Cl-] (stereo not given) | 1550

Tested on: Mus musculus
Assay: Analgesic activity in mouse assessed as inhibition of acetic acid-induced writhing responses at 31 umol/kg, ip between 5 to 10 mins
Format: functional
Parameters: scale not given: the % may be the effect or the level left

SMILES | Activity [%]
CC1C[N+]2(CCN(C/C=C/c3ccccc3)CC2)CC(C)O1.[Cl-] (stereo not given) | -43
COc1ccc(CCN2CC[N+]3(CC2)CC(C)OC(C)C3)cc1.[Cl-] (stereo not given) | -47
CC1C[N+]2(CCN(CCc3ccc([N+](=O)[O-])cc3)CC2)CC(C)O1.[Cl-] (stereo not given) | -24
C[N+]1(C)CCN(c2cccc([N+](=O)[O-])c2)CC1.[Br-] | 22
[Br-].c1ccc(N2CC[N+]3(CCCC3)CC2)cc1 | 20
[Cl-].c1ccc(CCN2CC[N+]3(CCCCC3)CC2)cc1 | 5
[Cl-].c1ccc(CCN2CC[N+]3(CCCC3)CC2)cc1 | -36
CC1C[N+]2(CCN(CCc3ccccc3)CC2)CC(C)O1.[Cl-] (stereo not given) | 65
CC1C[N+]2(CCN(Cc3ccccc3)CC2)CC(C)O1.[Cl-] (stereo not given) | 21
[Cl-].c1ccc(CCN2CC[N+]3(CCCCCC3)CC2)cc1 | 4
C=CCN1CC[N+]2(CC1)CC(C)OC(C)C2.[Cl-] (stereo not given) | 49
O=[N+]([O-])c1cccc(N2CC[N+]3(CCCC3)CC2)c1.[Br-] | 61
C[N+]1(C)CCN(CCc2ccccc2)CC1.[Cl-] | 18
O=[N+]([O-])c1ccc(N2CC[N+]3(CCCC3)CC2)cc1.[Br-] | 16
CC1C[N+]2(CCN(CCCc3ccccc3)CC2)CC(C)O1.[Cl-] (stereo not given) | -19
C[N+]1(C)CCN(c2cccc([N+](=O)[O-])c2)CC1.[I-] | -16
COc1ccc(N2CC[N+]3(CCCC3)CC2)cc1.[Br-] | 56
CC1C[N+]2(CCN(CCc3ccccn3)CC2)CC(C)O1.[Cl-] (stereo not given) | -2
